Key:
[1] = molecular target: T1, porcine beta-2 adrenoceptor (Sus scrofa, UniProt Q28997); test: cAMP assay in CHO cells transfected with the porcine beta-2 adrenoceptor (DiscoveRx Hit Hunter cAMP II); assay type: cell-based; settings: CHO cells transfected with porcine beta-2 adrenoceptor, 30 minutes incubation with compound
T1 construct: expressed in transfected cells; host or cells: CHO cells
In short: (§1)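 CHO cells expressing porcine or bovine β2 receptor pre-incubated 30 min with 0.5 mM IBMX, then exposed to compound (5×10^−12 to 10^−5 M) for 30 min at 37 °C. cAMP read by enzyme-fragment complementation kit; duplicate samples, EC50 from curve fitting.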

[2] = molecular target: T2, bovine beta-2 adrenoceptor (Bos taurus, UniProt Q28044); test: cAMP assay in CHO cells transfected with the bovine beta-2 adrenoceptor (DiscoveRx Hit Hunter cAMP II); assay type: cell-based; settings: CHO cells transfected with bovine beta-2 adrenoceptor, 30 minutes incubation with compound
T2 construct: expressed in transfected cells; host or cells: CHO cells
T2 sequence (Q28044 whole entry): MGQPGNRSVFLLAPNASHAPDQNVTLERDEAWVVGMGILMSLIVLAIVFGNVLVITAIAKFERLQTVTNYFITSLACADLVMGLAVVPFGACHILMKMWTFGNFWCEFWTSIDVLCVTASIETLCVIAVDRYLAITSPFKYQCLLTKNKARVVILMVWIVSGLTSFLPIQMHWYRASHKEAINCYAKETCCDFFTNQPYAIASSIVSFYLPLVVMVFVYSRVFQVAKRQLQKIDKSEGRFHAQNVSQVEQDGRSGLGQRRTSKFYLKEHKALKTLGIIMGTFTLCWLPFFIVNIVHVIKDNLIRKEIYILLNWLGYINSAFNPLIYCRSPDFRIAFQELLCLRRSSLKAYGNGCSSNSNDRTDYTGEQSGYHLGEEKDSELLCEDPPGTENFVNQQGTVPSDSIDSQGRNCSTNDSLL
In short: as §1

T1 sequence (Q28997 whole entry): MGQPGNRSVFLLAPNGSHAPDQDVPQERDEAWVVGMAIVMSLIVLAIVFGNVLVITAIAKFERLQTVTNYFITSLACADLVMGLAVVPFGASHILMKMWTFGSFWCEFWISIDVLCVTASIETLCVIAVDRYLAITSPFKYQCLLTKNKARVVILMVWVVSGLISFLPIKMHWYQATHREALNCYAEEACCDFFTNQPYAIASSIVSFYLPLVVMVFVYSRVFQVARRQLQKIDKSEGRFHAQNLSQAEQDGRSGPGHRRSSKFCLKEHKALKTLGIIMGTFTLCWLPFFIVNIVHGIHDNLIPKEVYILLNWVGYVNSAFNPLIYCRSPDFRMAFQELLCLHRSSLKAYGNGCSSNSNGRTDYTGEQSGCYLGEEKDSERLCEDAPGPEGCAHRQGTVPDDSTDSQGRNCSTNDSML

| SMILES | EC50 [1] [nM] | EC50 [2] [nM] |
| --- | --- | --- |
| Cc1[nH]c2ccc(F)cc2c1CCC(C)N[C@@H]1CCn2c(=O)[nH]c3cccc(c32)[C@H]1O (single isomer, unassigned) [Example 54] | 3.1 | 2.7 |
| O=c1[nH]c2cccc3c2n1CC[C@@H](NCCc1c[nH]c2ccccc12)[C@@H]3O (racemic) [Example 40b] | 28 | 550 |
| CC(CCc1ccncc1)N[C@@H]1CCn2c(=O)[nH]c3cccc(c32)[C@H]1O (mixture of isomers) [Example 27, 7-Hydroxy-6-[(1-methyl-3-pyridin-4-ylpropyl)amino]-4,5,6,7-tetrahydroimidazo[4,5,1-jk][1]benzazepin-2(1H)-one] | 53 | 77 |
| CC(CCc1cc(Cl)cc2cc[nH]c12)N[C@@H]1CCn2c(=O)[nH]c3cccc(c32)[C@H]1O (mixture of isomers) [Example 35, 6-{[3-(5-Chloro-1H-indol-7-yl)-1-methylpropyl]amino}-7-hydroxy-4,5,6,7-tetrahydroimidazo[4,5,1-jk][1]benzazepin-2(1H)-one] | 2 | 0.8 |
| CC(CCc1ccc[nH]c1=O)NC1CCn2c(=O)[nH]c3cccc(c32)C1O (stereo not drawn) [Example 36, 7-Hydroxy-6-{[1-methyl-3-(2-oxo-1,2-dihydropyridin-3-yl)propyl]amino}-4,5,6,7-tetrahydroimidazo[4,5,1-jk][1]benzazepin-2(1H)-one] | 56 | 59 |
| CC(CCc1c[nH]c2ccncc12)N[C@@H]1CCn2c(=O)[nH]c3cccc(c32)[C@H]1O (single isomer, unassigned) [Example 31b, 7-Hydroxy-6-{[1-methyl-3-(1H-pyrrolo[3,2-c]pyridin-3-yl)propyl]amino}-4,5,6,7-tetrahydroimidazo[4,5,1-jk][1]benzazepin-2(1H)-one] | 43 | 58 |
| CC(CCc1ccc(C(=O)O)o1)N[C@@H]1CCn2c(=O)[nH]c3cccc(c32)[C@H]1O (mixture of isomers) [Example 2, 5-(3-{[7-Hydroxy-2-oxo-1,2,4,5,6,7-hexahydroimidazo[4,5,1-jk][1]benzazepin-6-yl]amino}butyl)-2-furoic acid] | 31 | 171 |
| CC(CCc1ncccc1O)N[C@@H]1CCn2c(=O)[nH]c3cccc(c32)[C@H]1O (mixture of isomers) [Example 39, 7-Hydroxy-6-{[3-(3-hydroxypyridin-2-yl)-1-methylpropyl]amino}-4,5,6,7-tetrahydroimidazo[4,5,1-jk][1]benzazepin-2(1H)-one] | 159 | 330 |
| CC(CCc1cccc2cc[nH]c12)N[C@@H]1CCn2c(=O)[nH]c3cccc(c32)[C@H]1O (mixture of isomers) [Example 38d, 7-Hydroxy-6-{[3-(1H-indol-7-yl)-1-methylpropyl]amino}-4,5,6,7-tetrahydroimidazo[4,5,1-jk][1]benzazepin-2(1H)-one] | 1.1 | 0.6 |
| CCOC(=O)c1[nH]c2cc(Cl)ccc2c1CCN[C@@H]1CCn2c(=O)[nH]c3cccc(c32)[C@H]1O (racemic) [Example 41, Ethyl-6-chloro-3-(2-{[7-hydroxy-2-oxo-1,2,4,5,6,7-hexahydroimidazo[4,5,1-jk][1]benzazepin-6-yl]amino}ethyl)-1H-indole-2-carboxylate] | 26 | 546 |
| Cc1[nH]c2ccccc2c1CCC(C)N[C@@H]1CCn2c(=O)[nH]c3cccc(c32)[C@H]1O (mixture of isomers) [Example 3b, 7-Hydroxy-6-{[1-methyl-3-(2-methyl-1H-indol-3-yl)propyl]amino}-4,5,6,7-tetrahydroimidazo[4,5,1-jk][1]benzazepin-2(1H)-one] | 3 | 5.5 |
| CC(CCc1c[nH]c2cnccc12)N[C@@H]1CCn2c(=O)[nH]c3cccc(c32)[C@H]1O (single isomer, unassigned) [Example 32b, 7-Hydroxy-6-{[1-methyl-3-(1H-pyrrolo[2,3-c]pyridin-3-yl)propyl]amino}-4,5,6,7-tetrahydroimidazo[4,5,1-jk][1]benzazeiin-2(1H)-one] | 1090 | 96 |

— patent US20080267942A1, “BENZAZEPIN-2(1H)-ONE DERIVATIVES” (Pfizer Limited, priority 2006, published 2008)
